# How the values were obtained:
# Test in all cases: COMPOUND A In Vitro Assay
# Assay type in all cases: cell-based
# NCI-H345 = conditions: Homo sapiens, Lung, TP53 Mutant
# Source text: (§1) To generate an MDM2 antagonist therapy predictive signature, the response of MDM2 antagonist therapy in vitro with gene expression profiling (FIG. 1) is combined. A bank of 287 human cancer cell lines, collectively termed the Cell Lines for Oncology/Chugai ACcumulative Tumour EncycLopedia (CELLO/CACTEL), representing a broad array of diverse human cancer tumor types are subject to evaluation using several high-throughput genomic technology platforms. The mutational status of nucleic acids from each cell line is determined by exome sequencing. Messenger RNA (mRNA) expression levels at baseline, prior to MDM2 antagonist therapy, are obtained via RNA sequencing. MDM2 antagonist therapy COMPOUND A, sometimes referred to herein as RG7112, responses are obtained by assays known to those skilled in the art such as RNA sequencing and microarray measurement using Gene Chip Human Genome U133 Plus 2.0 Array. The MDM2 therapy responses are obtained by high throughout screening assays. Depending on their responses to COMPOUND A these cell lines are classified as either sensitive, defined as IC50<=1, or resistant, defined as IC50>=10.
# (§2) 281 cells are treated with MDM2 antagonists and the IC50 (therapy response) is generated. The cell lines span a broad range of tumor cell types of derivation.
# F-36P = conditions: Homo sapiens, Myeloblast, TP53 Mutant
# Source text: as §1, §2
# Ramos = conditions: Homo sapiens, Lymphocyte B, TP53 Wild type
# Source text: as §1, §2
# NCI-H146 = conditions: Homo sapiens, Lung, TP53 Mutant
# Source text: as §1, §2
# MCF10DCIS•com = conditions: Homo sapiens, Breast, TP53 Wild type
# Source text: as §1, §2
# Capan-2 = conditions: Homo sapiens, Pancreas, TP53 Mutant
# Source text: as §1, §2
# NUGC-3 = conditions: Homo sapiens, Stomach, TP53 Mutant
# Source text: as §1, §2
# 10C9 = conditions: Homo sapiens
# Source text: as §1, §2
# HT-29 = conditions: Homo sapiens, Intestine, large, colon, TP53 Mutant
# Source text: as §1, §2
# NCI-H1755 = conditions: Homo sapiens, Lung, TP53 Mutant
# Source text: as §1, §2
# HT-1080 = conditions: Homo sapiens
# Source text: as §1, §2
# HuH-28 = conditions: Homo sapiens, Gall bladder, TP53 Mutant
# Source text: as §1, §2
# NCCIT = conditions: Homo sapiens, Germ cell, gametocyte, TP53 Mutant
# Source text: as §1, §2
# Detroit 562 = conditions: Homo sapiens, Pharynx, TP53 Mutant
# Source text: as §1, §2
# NKM-1 = conditions: Homo sapiens
# Source text: as §1, §2
# LS411N = conditions: Homo sapiens, LS-411N, Intestine, large, caecum, TP53 Mutant
# Source text: as §1, §2
# MFE-280 = conditions: Homo sapiens, Uterus, endometrium, TP53 Mutant
# Source text: as §1, §2
# NCI-H520 = conditions: Homo sapiens, Lung, TP53 Mutant
# Source text: as §1, §2
# NCI-H69 = conditions: Homo sapiens, Lung, TP53 Mutant
# Source text: as §1, §2
# Hs 578T = conditions: Homo sapiens, Breast, mammary gland, TP53 Mutant
# Source text: as §1, §2
# HCC1937 = conditions: Homo sapiens, Breast, TP53 NA
# Source text: as §1, §2
# TCCSUP = conditions: Homo sapiens, TCC-SUP, Urinary, bladder, TP53 Mutant
# Source text: as §1, §2
# T98G = conditions: Homo sapiens, Brain, TP53 Mutant
# Source text: as §1, §2
# HEL = conditions: Homo sapiens, Lymphocyte, peripheral blood, TP53 Mutant
# Source text: as §1, §2
# NCI-H1993 = conditions: Homo sapiens, Lung, TP53 Mutant
# Source text: as §1, §2
# 143B = conditions: Homo sapiens, Bone, TP53 Mutant
# Source text: as §1, §2
# Huh-7 = conditions: Homo sapiens, Liver, TP53 Mutant
# Source text: as §1, §2
# KG-1a = conditions: Homo sapiens, Bone marrow, TP53 Mutant
# Source text: as §1, §2
# WiDr = conditions: Homo sapiens, Intestine, large, colon, TP53 Mutant
# Source text: as §1, §2
# PC-10 = conditions: Homo sapiens, PC10, Lung, TP53 Mutant
# Source text: as §1, §2
# KHM-1B = conditions: Homo sapiens, Lymphocyte, TP53 Wild type
# Source text: as §1, §2
# RL95-2 = conditions: Homo sapiens, Uterus, endometrium, TP53 Mutant
# Source text: as §1, §2
# UM-UC-3 = conditions: Homo sapiens, UMUC3, Urinary, bladder, TP53 Mutant
# Source text: as §1, §2
# TF-1a = conditions: Homo sapiens, Bone marrow, TP53 Mutant
# Source text: as §1, §2
# RPMI-2650 = conditions: Homo sapiens
# Source text: as §1, §2
# COLO-824 = conditions: Homo sapiens, Breast, TP53 Wild type
# Source text: as §1, §2
smiles,measurement,setting,value
CCOc1cc(C(C)(C)C)ccc1C1=N[C@@](C)(c2ccc(Cl)cc2)[C@@](C)(c2ccc(Cl)cc2)N1C(=O)N1CCN(CCCS(C)(=O)=O)CC1 [COMPOUND A],IC50,NCI-H345,17 µM
same,IC50,F-36P,23 µM
same,IC50,Ramos,8.8 µM
same,IC50,NCI-H146,8.3 µM
same,IC50,MCF10DCIS•com,1.4 µM
same,IC50,Capan-2,9.1 µM
same,IC50,NUGC-3,9.8 µM
same,IC50,"10C9; 10C9, Lymphocyte B, TP53 Mutant",19 µM
same,IC50,10C9; 10C9 cells,19 µM
same,IC50,HT-29,7.4 µM
same,IC50,NCI-H1755,7.8 µM
same,IC50,"HT-1080; HT-1080, HT-1080, Connective tissue, TP53 Wild type",0.058 µM
same,IC50,"HT-1080; HT-1080, HT-1080 cells",0.1 µM
same,IC50,HuH-28,15 µM
same,IC50,NCCIT,11 µM
same,IC50,Detroit 562,6.2 µM
same,IC50,"NKM-1; NKM-1, Lymphocyte, TP53 Wild type",0.32 µM
same,IC50,NKM-1; NKM-1 cells,0.3 µM
same,IC50,LS411N,16 µM
same,IC50,MFE-280,23 µM
same,IC50,NCI-H520,17 µM
same,IC50,NCI-H69,15 µM
same,IC50,Hs 578T,8.8 µM
same,IC50,HCC1937,15 µM
same,IC50,TCCSUP,16 µM
same,IC50,T98G,8.3 µM
same,IC50,HEL,17 µM
same,IC50,NCI-H1993,7.7 µM
same,IC50,143B,15 µM
same,IC50,Huh-7,10 µM
same,IC50,KG-1a,9 µM
same,IC50,WiDr,8.9 µM
same,IC50,PC-10,14 µM
same,IC50,KHM-1B,6.9 µM
same,IC50,RL95-2,9.3 µM
same,IC50,UM-UC-3,15 µM
same,IC50,TF-1a,10 µM
same,IC50,"RPMI-2650; RPMI-2650, RPMI-2650, Nasal septum, TP53 Wild type",0.77 µM
same,IC50,"RPMI-2650; RPMI-2650, RPMI-2650 cells",0.8 µM
same,IC50,COLO-824,15 µM
